In patent US11518764B2, “Substituted heteroaryls as inhibitors of the BCL6 BTB domain protein-protein interaction” (Ontario Institute for Cancer Research (OICR), priority 2018, dated 2022):
Like-named read-outs stand apart in the source and are kept apart here.

Columns and labels:
[1] = biological target: BCL6 BTB domain (Homo sapiens (Human), UniProt P41182); test: Surface plasmon resonance (SPR) assay; type: binding; details: BCL6 BTB domain captured on SA chip, single cycle kinetics
[2] = tested on: BCL6 reporter construct (3xBCL6-TK-Luc) in SuDHL4 cells; test: Cell-based luciferase assay
Method: Cell-Based Luciferase Assay
A BCL6 reporter construct containing three copies of the consensus BCL6 binding site, the TK promoter, and the firefly luciferase gene was stably expressed in SuDHL4 cells after lentivirus infection and selection with Blasticidin. SuDHL4-3×BCL6-TK-Luc cells were seeded into a Viewplate 384-well assay dish at 15,000 cells/well in 25 ul medium (Alpha-MEM high glucose containing 10% FBS, 25 mM HEPES, […] GlutaMAX, 100 ug/ml Normocin, and […] Gentamycin, Invitrogen). A HP D300 digital dispenser was used to dose cells with DMSO or test compounds across a 10-point range of concentrations (high dose of 10 uM), and cultures were grown in a humidified 5% CO2 incubator at 37° C. After two days, plates were removed from the incubator and equilibrated to room temperature. An equal volume of neolite reporter gene assay reagent was added to each well, and samples were processed according to manufacturer's instructions (Perkin Elmer). Luminescent signal was measured using an Envision plate reader equipped with a US-Luminescence detector.

[3] = tested on: Karpas422 cells; test: Tumor cell growth inhibition assay; type: cell-based; details: Homo sapiens, KARPAS-422, 144 h
Method: Tumor Cell Growth inhibition Assay
Karpas422 cells were seeded into a 96-well plate at 2,000 cells/well in 150 ul medium (Alpha-MEM containing 10% FBS, […] Normocin, and […] Gentamycin, Invitrogen). A HP D300 digital dispenser was used to dose cells with DMSO or test compounds across a 10-point range of concentrations (high dose of 5 uM), and cultures were grown in a humidified 5% CO2 incubator at 37° C. After six days, plates were removed from incubator and equilibrated to room temperature. An equal volume of ATPlite assay reagent was added to each well, and samples were processed according to manufacturer's instructions (Perkin Elmer). Luminescent signal was measured using an Envision plate reader equipped with a US-Luminescence detector.

[4] = Homo sapiens, SU-DHL-4, 48 h, read-out: Luciferase-Assay EC50, uM), SuDHL4-3xBCL6-TK-Luc cells, two days, high dose 10 uM
[5] = read-out: Tumor Growth Inhibition in Karpas-422 (IC50, uM), Karpas422 cells, six days, ATPlite

Compound | Kd [1] [nM] | EC50 [2, 4] [µM] | IC50 [3, 5] [µM] | EC50 ([2]; Homo sapiens, SU-DHL-4, 48 h, SuDHL4-3xBCL6-TK-Luc cells, two days, high dose 10 uM, read-out: Luciferase-Assay EC50) [µM] | IC50 ([3]; Karpas422 cells, six days, ATPlite, read-out: Tumor Growth Inhibition in Karpas-422 (IC50)) [µM]
COc1c(O)c(C(N)=O)cc(-c2cn(CC(=O)Nc3cc(N4C[C@@H](C)O[C@@H](C)C4)ncc3Cl)c3ncn(C)c(=O)c23)c1F [Compound I-172] | 167 | 0.797 | 1.34 |  | 
Cn1cnc2c(c(-c3cc(Cl)c(O)c(C(N)=O)c3)cn2CC(=O)Nc2cc(N3CCN4C(=O)CCC4C3)ncc2Cl)c1=O (stereo not drawn) [Compound I-236] | 16.6 | 0.739 | 0.385 |  | 
Cn1cnc2c(c(-c3cc(Cl)c(O)c(C(N)=O)c3)cn2CC(=O)Nc2cc(N3CCOC(C)(C)C3)ncc2Cl)c1=O [Compound I-147] | 19.6 | 0.144 | 0.0995 |  | 
CC1N=CC(C#CCn2cnc3c(c(-c4cc(C(N)=O)c(O)c(F)c4F)cn3CC(=O)Nc3cc(N4CCN(C)C[C@@H]4C)nc(F)c3Cl)c2=O)=N1 (stereo partly drawn) [Compound I-456] | 1.87 | 0.0858 | 0.0554 |  | 
Cc1c(O)c(C(N)=O)cc(-c2cn(CC(=O)Nc3cc(N4C[C@@H](C)O[C@@H](C)C4)ncc3Cl)c3ncn(C)c(=O)c23)c1F [Compound I-119] | 4000 | > 10 | > 10 |  | 
C[C@H]1CN(C)C[C@H](C)N1c1cc(NC(=O)Cn2cc(-c3cc(C(N)=O)c(O)c(F)c3F)c3c(=O)n(C)cnc32)c(Cl)c(F)n1 [Compound I-487] | 122 | 1.29 | 1.8 |  | 
CCCN1CCN(c2cc(NC(=O)Cn3cc(-c4cc(C(N)=O)c(O)c(F)c4F)c4c(=O)n(C)cnc43)c(Cl)cn2)[C@@H](C)C1 [Compound I-394] | 38.4 | 0.313 | 0.269 |  | 
COc1c(O)c(C(N)=O)cc(-c2cn(CC(=O)Nc3cc(N4C[C@@H](C)N[C@@H](C)C4)ncc3Cl)c3ncn(C)c(=O)c23)c1F [Compound I-193] | 229 | 5.39 | 2.66 |  | 
CN1C(C)(C)CN(c2cc(NC(=O)Cn3cc(-c4cc(F)c(O)c(C(N)=O)c4)c4c(=O)n(C)cnc43)c(Cl)cn2)CC1(C)C [Compound I-221] | 14.1 | 0.14 | 0.11 |  | 
CO[C@H]1CC(c2cc(NC(=O)Cn3cc(-c4cc(Cl)c(O)c(C(N)=O)c4)c4c(=O)n(C)cnc43)c(Cl)c(F)n2)C[C@H]1F (stereo partly drawn) [Compound I-439] | 32.9 | 0.267 | 0.28 |  | 
C[C@H]1COCCN1c1cc(NC(=O)Cn2cc(-c3cc(C(N)=O)c(O)c(Cl)c3F)c3c(=O)n(C)cnc32)c(Cl)cn1 [Compound I-167] | 299 | 2.81 | 2.34 |  | 
Cc1nc2c(c(-c3cc(F)c(O)c(C(N)=O)c3)cn2CC(=O)Nc2cc(N3CCN(C)C[C@@H]3C)ncc2Cl)c(=O)n1C [Compound I-207] | 4.45 | 0.0429 | 0.0703 |  | 
Cn1cnc2c(c(-c3cc(C(N)=O)c(O)c(F)c3F)cn2CC(=O)Nc2cc(N3CC4COCC4C3)ncc2Cl)c1=O (stereo not drawn) [Compound I-299] | 31.4 | 0.521 | 0.685 |  | 
Cn1cnc2c(c(-c3cc(Cl)c(O)c(C(N)=O)c3)cn2CC(=O)Nc2cc(N3C4COCC5CC543)ncc2Cl)c1=O (stereo not drawn) [Compound I-281] | 60.8 |  |  | 2.88 | 2.18
CN(C)c1cc(NC(=O)Cn2cc(-c3cc(F)c(O)c(C(N)=O)c3)c3c(=O)n(C)cnc32)c(Cl)c(F)n1 [Compound I-423] | 5.06 | 0.143 | 0.0391 |  | 
CC(C1CC1)N1CCN(c2cc(NC(=O)Cn3cc(-c4cc(Cl)c(O)c(C(N)=O)c4)c4c(=O)n(C)cnc43)c(Cl)cn2)[C@@H](C)C1 (stereo partly drawn) [Compound I-392] | 15.5 | 0.178 | 0.072 |  | 
Cn1cnc2c(c(-c3cc(Cl)c(O)c(C(N)=O)c3)cn2CC(=O)Nc2cc(N3CCOC4CC43)ncc2Cl)c1=O (stereo not drawn) [Compound I-244] | 8.46 | 0.279 | 0.169 |  | 
Cn1cnc2c(c(-c3cc(C(N)=O)c(O)c(F)c3F)cn2CC(=O)Nc2cc(N3CC4CC3CN4CC(F)(F)F)ncc2Cl)c1=O (stereo not drawn) [Compound I-363] | 59.3 | 0.931 | 1.19 |  | 
COCCN1CCN(c2cc(NC(=O)Cn3cc(-c4cc(C(N)=O)c(O)c(F)c4F)c4c(=O)n(C)cnc43)c(Cl)cn2)[C@@H](C)C1 [Compound I-414] | 17.9 | 0.374 | 0.455 |  | 

Compound | Kd [1] [nM] | EC50 [2, 4] [µM] | IC50 [3, 5] [µM] | EC50 ([2]; Homo sapiens, SU-DHL-4, 48 h, SuDHL4-3xBCL6-TK-Luc cells, two days, high dose 10 uM, read-out: Luciferase-Assay EC50) [µM] | IC50 ([3]; Karpas422 cells, six days, ATPlite, read-out: Tumor Growth Inhibition in Karpas-422 (IC50)) [µM]
CN(C)c1cc(NC(=O)Cn2cc(-c3cc(C(N)=O)c(O)c(F)c3F)c3c(=O)n(C)cnc32)c(Cl)cn1 [Compound I-297] | 57.9 | 0.395 | 0.846 |  | 
Cn1cnc2c(c(-c3cc(Cl)c(O)c(C(N)=O)c3)cn2CC(=O)Nc2cc(N3CCOCC3)nc(F)c2Cl)c1=O [Compound I-200] | 17.9 | 0.158 | 0.133 |  | 
C[C@H]1CN(CC2CC2)CCN1c1cc(NC(=O)Cn2cc(-c3cc(Cl)c(O)c(C(N)=O)c3)c3c(=O)n(C)cnc32)c(Cl)c(F)n1 [Compound I-444] | 19.8 | 0.239 | 0.104 |  | 
Cc1nc2c(c(-c3cc(Cl)c(O)c(C(N)=O)c3)cn2CC(=O)Nc2cc(N3CCN(C)C[C@@H]3C)nc(F)c2Cl)c(=O)n1C [Compound I-373] | 5.96 | 0.0803 | 0.105 |  | 
COc1c(O)c(C(N)=O)cc(-c2cn(CC(=O)Nc3cc(N4CCN(C)CC4)ncc3Cl)c3ncn(C)c(=O)c23)c1F [Compound I-189] | 143 | 1.69 | 2.19 |  | 
Cn1cnc2c(c(-c3cc(Cl)c(O)c(C(N)=O)c3)cn2CC(=O)Nc2cc(N3C[C@H]4CC[C@@H](C3)N4CC(F)(F)F)ncc2Cl)c1=O [Compound I-474] | 35.8 | 0.216 | 0.237 |  | 
CCN1CCN(c2cc(NC(=O)Cn3cc(-c4cc(C(N)=O)c(O)c(F)c4F)c4c(=O)n(C)cnc43)c(Cl)c(F)n2)[C@@H](C)C1 [Compound I-426] | 17.7 | 0.226 | 0.128 |  | 
Cn1cnc2c(c(-c3cc(C(N)=O)c(O)c(F)c3F)cn2CC(=O)Nc2cc(N3CCOCC3)ncc2Cl)c1=O [Compound I-178] | 62.1 | 0.96 | 0.877 |  | 
COC[C@@H]1COCCN1c1cc(NC(=O)Cn2cc(-c3cc(Cl)c(O)c(C(N)=O)c3)c3c(=O)n(C)cnc32)c(Cl)cn1 [Compound I-150] | 12.8 | 0.184 | 0.124 |  | 
C[C@@H]1CN(c2cc(NC(=O)Cn3cc(-c4cc(C(N)=O)c(O)c(F)c4F)c4c(=O)n(C)cnc43)c(Cl)cn2)C[C@H](C)N1C [Compound I-353] | 75 | 1.35 | 0.648 |  | 
CO[C@@H]1CN(c2cc(NC(=O)Cn3cc(-c4cc(C(N)=O)c(O)c(F)c4F)c4c(=O)n(C)cnc43)c(Cl)c(F)n2)C[C@@H]1F [Compound I-442] | 21.8 | 0.386 | 0.266 |  | 
CN(C)c1cc(NC(=O)Cn2cc(-c3cc(Cl)c(O)c(C(N)=O)c3)c3c(=O)[nH]c(Cl)nc32)c(Cl)cn1 [Compound I-293] | 18.3 | 10 | 2.44 |  | 
Cn1cnc2c(c(-c3cc(C(N)=O)c(O)c(Cl)c3F)cn2CC(=O)Nc2cc(N3CCOCC3)ncc2Cl)c1=O [Compound I-169] | 206 | 1.96 | 1.89 |  | 
CN1CCN(c2cc(NC(=O)Cn3cc(-c4cc(F)c(O)c(C(N)=O)c4)c4c(=O)n(CC#Cc5cnn(C)c5)cnc43)c(Cl)cn2)CC1 [Compound I-478] | 4.58 | 0.366 | 0.182 |  | 
C[C@H]1CN(CC2CCC2)CCN1c1cc(NC(=O)Cn2cc(-c3cc(C(N)=O)c(O)c(F)c3F)c3c(=O)n(C)cnc32)c(Cl)cn1 [Compound I-408] | 38.2 | 0.759 | 0.463 |  | 
C[C@H]1CN(CC2(C#N)CC2)CCN1c1cc(NC(=O)Cn2cc(-c3cc(C(N)=O)c(O)c(F)c3F)c3c(=O)n(C)cnc32)c(Cl)cn1 [Compound I-407] | 23.6 | 0.783 | 0.377 |  | 
Cn1cnc2c(c(-c3cc(Cl)c(O)c(C(N)=O)c3)cn2CC(=O)Nc2cc(N3CCOCC3(C)C)ncc2Cl)c1=O [Compound I-212] | 28.4 | 0.494 | 0.457 |  | 
Cc1nc2c(c(-c3cc(C(N)=O)c(O)c4c3OCO4)cn2CC(=O)Nc2cc(N3CCNC[C@@H]3C)nc(F)c2Cl)c(=O)n1C [Compound I-230] | 2.32 | 0.0625 | 0.0157 |  | 
